Results published in US20100056526A1, “HETEROMONOCYCLIC COMPOUND AND USE THEREOF” (Takeda Pharmaceutical Company Limited, priority 2006, published 2010).
Counter-ions that a name gives are not always drawn. Like-named read-outs stand apart in the source and are kept apart here.

Legend:
human AT1 receptor = target: T1, human AT1 receptor (Homo sapiens, UniProt P30556); test: Binding assay using human AT1 receptor-expressing CHO-K1 cell membrane fraction ([125I]-angiotensin II); conditions: 22.5 pM [125I]-angiotensin II, 9 μg AT1 membrane, 1 hr room temperature; read-out: AT1 receptor binding inhibitory action (IC50 (nM))
T1 construct: expressed in transfected cells; host or cells: CHO-K1
T1 sequence (P30556 1-359): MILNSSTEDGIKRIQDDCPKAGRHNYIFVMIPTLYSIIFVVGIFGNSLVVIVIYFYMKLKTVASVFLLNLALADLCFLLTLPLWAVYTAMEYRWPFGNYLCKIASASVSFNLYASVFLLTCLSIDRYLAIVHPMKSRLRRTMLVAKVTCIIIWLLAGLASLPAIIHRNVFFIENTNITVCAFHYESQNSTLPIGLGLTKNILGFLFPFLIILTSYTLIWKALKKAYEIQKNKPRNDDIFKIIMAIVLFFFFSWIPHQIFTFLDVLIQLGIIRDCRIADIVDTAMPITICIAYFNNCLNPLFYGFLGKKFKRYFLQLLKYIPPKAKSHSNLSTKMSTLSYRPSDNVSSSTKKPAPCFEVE
Summary of the method: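 Radioligand displacement: test compound competed with [125I]-angiotensin II (22.5 pM) on stable CHO-K1 AT1 membrane fraction, 1 hr, room temperature, Tris pH 7.4/MgCl2 buffer ± 0.3 mg/mL BSA. Filtration then scintillation counting; 1 μM CV-11974 defined nonspecific binding. Values are IC50s.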

PPARγ = target: T2, PPARγ (Homo sapiens, UniProt P37231); test: Evaluation of PPARγ activating action (luciferase reporter in PPARγ:RXRα:4ERPP/CHO-K1 cells); format: cell-based; conditions: CHO-K1, 24 h, read-out: PPARγ activating action (activation % (10^−6 M))
T2 construct: expressed in transfected cells; host or cells: CHO-K1
T2 sequence (P37231 1-477 isoform P37231-2): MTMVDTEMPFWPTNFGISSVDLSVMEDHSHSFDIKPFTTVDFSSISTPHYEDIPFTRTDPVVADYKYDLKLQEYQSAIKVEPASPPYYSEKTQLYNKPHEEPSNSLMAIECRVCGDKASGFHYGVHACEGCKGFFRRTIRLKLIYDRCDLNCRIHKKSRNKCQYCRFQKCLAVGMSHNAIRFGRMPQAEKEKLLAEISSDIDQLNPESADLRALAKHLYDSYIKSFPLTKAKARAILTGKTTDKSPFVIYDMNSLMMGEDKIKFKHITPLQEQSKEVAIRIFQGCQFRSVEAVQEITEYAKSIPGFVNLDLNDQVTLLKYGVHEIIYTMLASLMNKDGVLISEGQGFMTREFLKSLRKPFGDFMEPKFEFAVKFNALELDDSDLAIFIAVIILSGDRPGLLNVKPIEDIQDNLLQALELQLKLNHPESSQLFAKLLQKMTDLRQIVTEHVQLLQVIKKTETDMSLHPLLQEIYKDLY
T2 sequence (P19793 1-462 partner): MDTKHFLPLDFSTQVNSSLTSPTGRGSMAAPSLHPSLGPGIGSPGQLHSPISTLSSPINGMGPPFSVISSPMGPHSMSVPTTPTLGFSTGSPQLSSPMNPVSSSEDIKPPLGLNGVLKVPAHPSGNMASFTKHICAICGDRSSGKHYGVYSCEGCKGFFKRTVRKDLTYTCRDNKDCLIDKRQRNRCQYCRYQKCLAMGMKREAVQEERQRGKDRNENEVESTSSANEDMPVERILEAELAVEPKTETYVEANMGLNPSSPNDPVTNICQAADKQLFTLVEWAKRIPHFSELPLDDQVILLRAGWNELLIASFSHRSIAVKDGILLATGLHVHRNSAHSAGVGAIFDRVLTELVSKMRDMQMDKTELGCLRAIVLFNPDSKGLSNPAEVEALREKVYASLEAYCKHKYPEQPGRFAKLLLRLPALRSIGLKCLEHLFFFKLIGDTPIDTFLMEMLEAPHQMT
Summary of the method: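 Activity is expressed as percent, where vehicle gives 0% and 1 μM compound X gives 100%, based on luciferase luminescence. Reporter CHO-K1 cells co-expressing PPARγ:RXRα with a 4ERPP-driven luciferase were incubated with test compound for one day at 37 °C in medium with 0.1% fatty acid-free BSA.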

[1] = test compound 10^−6 M, luciferase activity relative to control compound X (1 μM) = 100%, non-administration group = 0%

Row | SMILES | IC50 (human AT1 receptor) [nM] | activation at 1 µM (PPARγ; [1]) [%] | activation at 1 µM (PPARγ) [%]
1 | CCCc1nc(C)n(-c2ccc(OC3CCC(O)CC3)cc2)c(=O)c1Cc1ccc(-c2ccccc2-c2noc(O)n2)cc1F (stereo not drawn) [Example 343, 5-{[3-fluoro-2′-(5-oxo-4,5-dihydro-1,2,4-oxadiazol-3-yl)biphenyl-4-yl]methyl}-3-{4-[(4-hydroxycyclohexyl)oxy]phenyl}-2-methyl-6-propylpyrimidin-4(3H)-one] | 0.7 | 15.2 | –
2 | CCCc1nc(CC)n(-c2ccc(OC3CCOCC3)nc2)c(=O)c1Cc1ccc(-c2ccccc2-c2noc(=O)[nH]2)cc1 [Example 406, 2-ethyl-5-{[2′-(5-oxo-4,5-dihydro-1,2,4-oxadiazol-3-yl)biphenyl-4-yl]methyl}-6-propyl-3-[6-(tetrahydro-2H-pyran-4-yloxy)pyridin-3-yl]pyrimidin-4(3H)-one] | 1.5 | 41.9 | –
3 | CCCc1nc(CC)n(-c2ccc3c(c2)CCO3)c(=O)c1Cc1ccc(-c2ccccc2-c2noc(O)n2)cc1 [Example 311, 3-(2,3-dihydro-1-benzofuran-5-yl)-2-ethyl-5-{[2′-(5-oxo-4,5-dihydro-1,2,4-oxadiazol-3-yl)biphenyl-4-yl]methyl}-6-propylpyrimidin-4(3H)-one potassium salt] | 1.6 | – | 38.1
4 | CCCc1nc(CC)n(-c2ccc(OC3CCC[C@H]3O)cc2)c(=O)c1Cc1ccc(-c2ccccc2-c2noc(=O)[nH]2)cc1 (stereo partly drawn) [Example 381, 2-ethyl-3-(4-{[(2R)-2-hydroxycyclopentyl]oxy}phenyl)-5-{[2′-(5-oxo-4,5-dihydro-1,2,4-oxadiazol-3-yl)biphenyl-4-yl]methyl}-6-propylpyrimidin-4(3H)-one] | 1.2 | 28.2 | –
5 | CCCc1nc(C)n(-c2ccc3c(c2)CC(C)(C)O3)c(=O)c1Cc1ccc(-c2ccccc2-c2noc(=O)[nH]2)cc1 [Example 239, 3-(2,2-dimethyl-2,3-dihydro-1-benzofuran-5-yl)-2-methyl-5-{[2′-(5-oxo-4,5-dihydro-1,2,4-oxadiazol-3-yl)biphenyl-4-yl]methyl}-6-propylpyrimidin-4(3H)-one] | 1.8 | 31.6 | –
6 | CCCc1nc(CC)c(C(O)C(C)C)c(=O)n1Cc1ccc(-c2ccccc2-c2noc(O)n2)cc1 (stereo not drawn) [Example 473, 6-ethyl-5-(1-hydroxy-2-methylpropyl)-3-{[2′-(5-oxo-4,5-dihydro-1,2,4-oxadiazol-3-yl)biphenyl-4-yl]methyl}-2-propylpyrimidin-4(3H)-one potassium salt] | 3.6 | – | 15.7
7 | CCCc1nc(C)n(-c2ccc3c(c2)CC(C)(C)O3)c(=O)c1Cc1ccc(-c2ccccc2-c2noc(O)n2)c(F)c1 [Example 402, 3-(2,2-dimethyl-2,3-dihydro-1-benzofuran-5-yl)-5-{[2-fluoro-2′-(5-oxo-4,5-dihydro-1,2,4-oxadiazol-3-yl)biphenyl-4-yl]methyl}-2-methyl-6-propylpyrimidin-4(3H)-one] | 1.8 | 24.1 | –
8 | CCCc1nc(CC)c(Oc2cccc(OC)c2)c(=O)n1Cc1ccc(-c2ccccc2-c2noc(O)n2)cc1 [Example 488, 6-ethyl-5-(3-methoxyphenoxy)-3-{[2′-(5-oxo-4,5-dihydro-1,2,4-oxadiazol-3-yl)biphenyl-4-yl]methyl}-2-propylpyrimidin-4(3H)-one potassium salt] | 1.9 | – | 16.7
9 | CCCc1nc(C)n(-c2ccc(OC(CC)CC)cc2)c(=O)c1Cc1ccc(-c2ccccc2-c2noc(=O)[nH]2)cc1 [Example 256, 3-[4-(1-ethylpropoxy)phenyl]-2-methyl-5-{[2′-(5-oxo-4,5-dihydro-1,2,4-oxadiazol-3-yl)biphenyl-4-yl]methyl}-6-propylpyrimidin-4(3H)-one] | 2 | 45.7 | –
10 | CCCc1nc(C)n(-c2ccc3c(c2)CC(C)O3)c(=O)c1Cc1ccc(-c2ccccc2-c2noc(=O)[nH]2)cc1 (stereo not drawn) [Example 235, 2-methyl-3-(2-methyl-2,3-dihydro-1-benzofuran-5-yl)-5-{[2′-(5-oxo-4,5-dihydro-1,2,4-oxadiazol-3-yl)biphenyl-4-yl]methyl}-6-propylpyrimidin-4(3H)-one] | 1.5 | 27.6 | –
11 | CCCc1nc(C)n(-c2ccc(OC3CCC(=O)CC3)cc2)c(=O)c1Cc1ccc(-c2ccccc2-c2noc(O)n2)cc1F [Example 346, 5-{[3-fluoro-2′-(5-oxo-4,5-dihydro-1,2,4-oxadiazol-3-yl)biphenyl-4-yl]methyl}-2-methyl-3-{4-[(4-oxocyclohexyl)oxy]phenyl}-6-propylpyrimidin-4(3H)-one] | 1 | 21.8 | –

Further lines, with some results ahead:

Row | IC50 (human AT1 receptor) [nM] | activation at 1 µM (PPARγ; [1]) [%] | SMILES | activation at 1 µM (PPARγ) [%]
12 | 2.3 | 19.4 | CCCc1nc(CC)c(Oc2cc(F)ccc2F)c(=O)n1Cc1ccc(-c2ccccc2-c2noc(=O)[nH]2)cc1 [Example 484, 5-(2,5-difluorophenoxy)-6-ethyl-3-{[2′-(5-oxo-4,5-dihydro-1,2,4-oxadiazol-3-yl)biphenyl-4-yl]methyl}-2-propylpyrimidin-4(3H)-one] | –
13 | 2.2 | 36 | CCCc1nc(CC)c(-c2ccc(OC(C)C)cc2F)c(=O)n1Cc1ccc(-c2ccccc2-c2noc(O)n2)cc1 [Example 458, 6-ethyl-5-(2-fluoro-4-isopropoxyphenyl)-3-{[2′-(5-oxo-4,5-dihydro-1,2,4-oxadiazol-3-yl)biphenyl-4-yl]methyl}-2-propylpyrimidin-4(3H)-one] | –
14 | 2 | 23.5 | CCCc1nc(CC)c(Oc2ccc3c(c2)OCO3)c(=O)n1Cc1ccc(-c2ccccc2-c2noc(O)n2)cc1 [Example 485, 5-(1,3-benzodioxol-5-yloxy)-6-ethyl-3-{[2′-(5-oxo-4,5-dihydro-1,2,4-oxadiazol-3-yl)biphenyl-4-yl]methyl}-2-propylpyrimidin-4(3H)-one] | –
15 | 3.5 | 36 | CCCc1nc(CC)c(-c2ccc(OC(F)(F)F)cc2)c(=O)n1Cc1ccc(-c2ccccc2-c2noc(O)n2)cc1 [Example 457, 6-ethyl-3-{[2′-(5-oxo-4,5-dihydro-1,2,4-oxadiazol-3-yl)biphenyl-4-yl]methyl}-2-propyl-5-[4-(trifluoromethoxy)phenyl]pyrimidin-4(3H)-one] | –
16 | 2.9 | 22.5 | CCCCc1nc(C)c(C(=O)c2ccccc2)c(=O)n1Cc1ccc(-c2ccccc2-c2noc(=O)[nH]2)cc1 [Example 453, 5-benzoyl-2-butyl-6-methyl-3-{[2′-(5-oxo-4,5-dihydro-1,2,4-oxadiazol-3-yl)biphenyl-4-yl]methyl}pyrimidin-4(3H)-one] | –
17 | 1.3 | 31 | CCCc1nc(CC)c(-c2ccc(OC(C)(C)CO)cc2)c(=O)n1Cc1ccc(-c2ccccc2-c2noc(=O)[nH]2)cc1F [Example 511, 6-ethyl-3-{[3-fluoro-2′-(5-oxo-4,5-dihydro-1,2,4-oxadiazol-3-yl)biphenyl-4-yl]methyl}-5-[4-(2-hydroxy-1,1-dimethylethoxy)phenyl]-2-propylpyrimidin-4(3H)-one] | –
18 | 1.3 | 33.5 | CCCc1nc(CC)n(-c2ccc(OC3CCOC(C)C3)cc2)c(=O)c1Cc1ccc(-c2ccccc2-c2noc(=O)[nH]2)cc1 (stereo not drawn) [Example 424, 2-ethyl-3-{4-[(2-methyltetrahydro-2H-pyran-4-yl)oxy]phenyl}-5-{[2′-(5-oxo-4,5-dihydro-1,2,4-oxadiazol-3-yl)biphenyl-4-yl]methyl}-6-propylpyrimidin-4(3H)-one] | –
